Reference: the NIST ThermoML archive (doi:10.1016/j.jct.2012.04.015)
Numbers after ± are expanded uncertainties.

Assay: refractive index (Na D-line) (dimensionless)
Conditions: 298.15 K; 101.33 kPa; Liquid; Standard Abbe refractometry

| Structure (SMILES) | refractive index |
| --- | --- |
| C1CCCCC1 [cyclohexane] | 1.42356 ± 0.00031 |
| CCCCn1cc[n+](C)c1.O=S(=O)([O-])C(F)(F)F [1-butyl-3-methylimidazolium trifluoromethanesulfonate] | 1.43895 ± 0.00037 |
| CCCCCC[n+]1ccn(C)c1.O=S(=O)([N-]S(=O)(=O)C(F)(F)F)C(F)(F)F | 1.43016 ± 0.00037 |
| Cc1ccccc1 [toluene] | 1.49398 ± 0.00031 |
| CCCCCCC [heptane] | 1.38529 ± 0.00033 |

Same assay, conditions: 303.15 K; 101.33 kPa; Liquid; Standard Abbe refractometry

| Structure (SMILES) | refractive index |
| --- | --- |
| CCCCCCn1cc[n+](C)c1.O=S(=O)([O-])C(F)(F)F [1-hexyl-3-methylimidazolium trifluoromethanesulfonate] | 1.43926 ± 0.00037 |

Assay: not given
Conditions: 298.15 K; 101.33 kPa; Liquid; Vibrating tube method

| Structure (SMILES) | mass density [kg/m3] |
| --- | --- |
| C1CCCCC1 [cyclohexane] | 773.88 ± 0.13 |
| CCCCn1cc[n+](C)c1.O=S(=O)([O-])C(F)(F)F [1-butyl-3-methylimidazolium trifluoromethanesulfonate] | 1303.63 ± 0.49 |
| CCCCCC[n+]1ccn(C)c1.O=S(=O)([N-]S(=O)(=O)C(F)(F)F)C(F)(F)F | 1371.99 ± 0.55 |
| Cc1ccccc1 [toluene] | 862.23 ± 0.1 |
| CCCCCCC [heptane] | 679.57 ± 0.18 |

Same assay, conditions: 303.15 K; 101.33 kPa; Liquid; Vibrating tube method

| Structure (SMILES) | mass density [kg/m3] |
| --- | --- |
| CCCCCCn1cc[n+](C)c1.O=S(=O)([O-])C(F)(F)F [1-hexyl-3-methylimidazolium trifluoromethanesulfonate] | 1232.55 ± 0.43 |
